pIC50: −log10 of the molar value.
What follows are compounds tested on cellular histone deacetylase enzymatic activity in Jurkat E6-1 cells (assay: Inhibition of cellular HDAC activity in Jurkat E6-1 cells, fluorogenic substrate Boc-Lys(Tfa)-AMC). Conditions: Homo sapiens, read-out: Cell IC50.
Assay type: cell-based
Source text: Example 50: Analysis of Inhibition of Cellular HDAC Activity with Class IIa Histone Deacetylase (HDAC) Inhibitors
The potency of Class IIa Histone Deacetylase (HDAC) inhibitors is quantified by measuring the cellular histone deacetylase enzymatic activity using the fluorogenic substrate, Boc-Lys(Tfa)-AMC. After penetration in Jurkat E6-1 cells, the substrate is deacetylated to Boc-Lys-AMC. After cell lysis and cleavage by trypsin, the fluorophore AMC is released from the deacetylated substrate only. The fluorescence of the sample is directly related to the histone deacetylase activity in the sample.
Jurkat E6.1 cells are cultured according to standard cell culture protocols in Jurkat E6.1 Growth Media (RPMI without phenol red, 10% FBS, 10 mM HEPES, and 1 mM Sodium Pyruvate). Jurkat E6.1 cells are counted using a Coulter Counter and resuspended in Jurkat E6.1 growth media at a concentration of 75,000 cells/35 μl. 35 μl or 75,000 cells is seeded into Greiner microtitre assay plates. The plates are then incubated at 37° C. and 5% CO2 while other assay components are being prepared.
Serial dilutions of the HDAC inhibitors and control reference compound (1-(5-(3-((4-(1,3,4-oxadiazol-2-yl)phenoxy)methyl)-1,2,4-oxadiazol-5-yl)thiophen-2-yl)-2,2,2-trifluoroethanone) are made by first resuspending the lyophilized compound to a final concentration of 10 mM in 100% DMSO. Stocks of 70 μl aliquots of the 10 mM compound in DMSO are prepared and stored at −20° C. From one stock aliquot of each compound to be tested and the reference compound, a 16-point serial dilution is prepared according to Table 1 using a 125 μl 16-channel Matrix multi-channel pipette.
2 μl (200×) of each diluted solution and each control (full activity: 100% DMSO alone or full inhibition 1 mM) is stamped into V-bottom polypropylene 384-well compound plates using either the Bravo, Janus, or 12.5 μl 16-channel Matrix multi-channel pipette. Each well with the 200× compound solution is diluted 1:20 by the addition of 38 μl Jurkat assay buffer+DMSO (9.5% DMSO, RPMI without phenol red, 0.09% FBS, 9 mM Hepes, and 0.9 mM Sodium Pyruvate equilibrated to room temperature)
5× (500 μM) substrate is prepared just prior to the addition to the assay. The 5× substrate is prepared by diluting a 100 mM Boc-Lys(Tfa)-AMC in DMSO solution 1:200 by adding it drop-wise to Jurkat assay medium (RPMI without phenol red, 0.1% FBS, 10 mM Hepes, and 1 mM Sodium Pyruvate equilibrated to 37° C.) while vortexing at slow speed to prevent precipitation.
10 ml of 3× lysis buffer is prepared with 8.8 ml of 3× stock lysis buffer (50 mM Tris-HCl, pH 8.0, 137 mM NaCl, 2.7 mM KCl, 1 mM MgCl2, 1% Nonidet P40 Substitute equilibrated to room temperature) and 1.2 ml of 3 mg/ml Trypsin equilibrated to room temperature.
5 μl of each solution of 1:20 diluted compound from above is transferred to the Greiner microtitre assay plates with 75,000 cells/well using the Bravo. Cells are then incubated for 2 hours at 37° C. and 5% CO2. The assay is then started by adding 10 μl of 5× (500 μM) substrate to the assay plate using either the Bravo or 16-channel Matrix multi-channel pipette. The cells are then incubated for 3 hours at 37° C. and 5% CO2. Next, 25 μl of 3× lysis buffer is added to each well using either the 125 μl 16 channel pipette or the Bravo. The assay plate is then incubated overnight (15-16 hours) at 37° C. and 5% CO2. The following day, the plates are shaken on an orbital shaker for 1 minute at 900 rpm. Finally the top read fluorescence (Excitation: 355 nm, Emission: 460 nm) is measured using PerkinElmer EnVision.

Structure (SMILES)	pIC50
Cc1c(F)cccc1[C@@]1(C(=O)NO)C=C(c2ccc3onc(C)c3c2)CC1 [Example 22, (S)-1-(3-fluoro-2-methylphenyl)-N-hydroxy-3-(3-methylbenzo[d]isoxazol-5-yl)cyclopent-2-enecarboxamide]	7.22
Cc1c(F)cccc1[C@@]1(C(=O)NO)C=C(c2ccnc(C(F)(F)F)c2)CC1 [Example 13, (S)-1-(3-fluoro-2-methylphenyl)-N-hydroxy-3-(2-(trifluoromethyl)pyridin-4-yl)cyclopent-2-enecarboxamide]	6.57
Cc1c(F)cccc1[C@@]1(C(=O)NO)C=C(c2ccc3cnn(C)c3c2)CC1 [Example 38, (S)-1-(3-fluoro-2-methylphenyl)-N-hydroxy-3-(1-methyl-1H-indazol-6-yl)cyclopent-2-enecarboxamide]	8.00
Cc1c(F)cccc1[C@@]1(C(=O)NO)C=C(c2cnc(C3CC3)nc2)CC1 [Example 24, (S)-3-(2-cyclopropylpyrimidin-5-yl)-1-(3-fluoro-2-methylphenyl)-N-hydroxycyclopent-2-enecarboxamide]	7.10
Cc1c(F)cccc1[C@]1(C(=O)NO)C=C(c2ccccc2)CC1 [Example 1, (R)-1-(3-fluoro-2-methylphenyl)-N-hydroxy-3-phenylcyclopent-2-enecarboxamide]	< 4.30
Cc1c(F)cccc1[C@@]1(C(=O)NO)C=C(c2cnn(C(F)F)c2)CC1 [Example 18, (S)-3-(1-(difluoromethyl)-1H-pyrazol-4-yl)-1-(3-fluoro-2-methylphenyl)-N-hydroxycyclopent-2-enecarboxamide]	6.80
O=C(NO)C1(c2ccccc2F)CC=CC1 [Example 31, 1-(2-fluorophenyl)-N-hydroxy-cyclopent-3-enecarboxamide]	4.35
O=C(NO)C1(c2ccccc2)CC=CC1 [Example 30, N-hydroxy-1-phenyl-cyclopent-3-enecarboxamide]	< 4.30
O=C(NO)C1(c2ccccc2)CC=C(c2cncc(F)c2)CC1 (stereo not drawn) [Example 43, 4-(5-fluoropyridin-3-yl)-N-hydroxy-1,2,3,6-tetrahydro-[1,1′-biphenyl]-1-carboxamide]	4.41
Cc1c(F)cccc1[C@@]1(C(=O)NO)C=C(c2ccc3cnn(C(F)F)c3c2)CC1 [Example 39, (S)-3-(1-(difluoromethyl)-1H-indazol-6-yl)-1-(3-fluoro-2-methylphenyl)-N-hydroxycyclopent-2-enecarboxamide]	7.52
Cc1c(F)cccc1[C@@]1(C(=O)NO)C=C(c2cncnc2)CC1 [Example 14, (S)-1-(3-fluoro-2-methylphenyl)-N-hydroxy-3-(pyrimidin-5-yl)cyclopent-2-enecarboxamide]	6.44
Cc1c([C@@]2(C(=O)NO)C=C(c3ccc4cnn(C)c4c3)CC2)ccc(F)c1F [Example 42, (S)-1-(3,4-difluoro-2-methylphenyl)-N-hydroxy-3-(1-methyl-1H-indazol-6-yl)cyclopent-2-enecarboxamide]	7.70
Cc1c(F)cccc1[C@]1(C(=O)NO)C=C(c2cnccn2)CC1 [Example 7, (R)-1-(3-fluoro-2-methylphenyl)-N-hydroxy-3-(pyrazin-2-yl)cyclopent-2-ene carboxamide]	< 4.30
Cc1c(F)cccc1[C@@]1(C(=O)NO)C=C(C2CC2)CC1 [Example 32, (S)-3-cyclopropyl-1-(3-fluoro-2-methylphenyl)-N-hydroxycyclopent-2-enecarboxamide]	6.14
Cc1ccccc1C1=C[C@](C(=O)NO)(c2cccc(F)c2C)CC1 [Example 4, (S)-1-(3-fluoro-2-methyl-phenyl)-N-hydroxy-3-(o-tolyl)cyclopent-2-ene-1-carboxamide]	6.44
Cc1c(F)cccc1[C@@]1(C(=O)NO)C=C(c2ccc3scnc3c2)CC1 [Example 40, (S)-3-(benzo[d]thiazol-5-yl)-1-(3-fluoro-2-methylphenyl)-N-hydroxycyclopent-2-enecarboxamide]	7.30
Cc1c(F)cccc1[C@@]1(C(=O)NO)C=C(c2cnn(CC(F)(F)F)c2)CC1 [Example 28, (S)-1-(3-fluoro-2-methylphenyl)-N-hydroxy-3-(1-(2,2,2-trifluoroethyl)-1H-pyrazol-4-yl)cyclopent-2-enecarboxamide]	6.80
Cc1c(F)cccc1[C@@]1(C(=O)NO)C=C(c2ccccc2)CC1 [Example 2, (S)-1-(3-fluoro-2-methylphenyl)-N-hydroxy-3-phenylcyclopent-2-enecarboxamide]	6.77
Cc1c(F)cccc1C1(C(=O)NO)CC=C(c2cncc(F)c2)CC1 (stereo not drawn) [Example 44, 3′-fluoro-4-(5-fluoropyridin-3-yl)-N-hydroxy-2′-methyl-1,2,3,6-tetrahydro-[1,1′-biphenyl]-1-carboxamide]	6.17

Next, values leading:

pIC50	Structure (SMILES)
7.00	Cc1c(F)cccc1[C@@]1(C(=O)NO)C=C(c2ccc(C(F)(F)F)nc2)CC1 [Example 16, (S)-1-(3-fluoro-2-methylphenyl)-N-hydroxy-3-(6-(trifluoromethyl)pyridin-3-yl)cyclopent-2-enecarboxamide]
7.05	Cc1ncccc1C1=C[C@](C(=O)NO)(c2cccc(F)c2C)CC1 [Example 37, (S)-1-(3-fluoro-2-methylphenyl)-N-hydroxy-3-(2-methylpyridin-3-yl)cyclopent-2-enecarboxamide]
6.66	COc1ncc(C2=C[C@](C(=O)NO)(c3cccc(F)c3C)CC2)cc1F [Example 23, (S)-1-(3-fluoro-2-methylphenyl)-3-(5-fluoro-6-methoxypyridin-3-yl)-N-hydroxycyclopent-2-enecarboxamide]
< 4.30	Cc1ncc(C2=C[C@@](C(=O)NO)(c3cccc(F)c3C)CC2)cn1 [Example 9, (R)-1-(3-fluoro-2-methylphenyl)-N-hydroxy-3-(2-methylpyrimidin-5-yl)cyclopent-2-enecarboxamide]
6.80	Cc1c(F)cccc1[C@@]1(C(=O)NO)C=C(c2cncc(F)c2)CC1 [Example 6, (S)-1-(3-fluoro-2-methylphenyl)-3-(5-fluoropyridin-3-yl)-N-hydroxycyclopent-2-enecarboxamide]
6.92	Cc1ccc(C2=C[C@](C(=O)NO)(c3cccc(F)c3C)CC2)cn1 [Example 25, (S)-1-(3-fluoro-2-methylphenyl)-N-hydroxy-3-(6-methylpyridin-3-yl)cyclopent-2-enecarboxamide]
6.92	Cc1ncc(Cl)cc1C1=C[C@](C(=O)NO)(c2cccc(F)c2C)CC1 [Example 36, (S)-3-(5-chloro-2-methylpyridin-3-yl)-1-(3-fluoro-2-methylphenyl)-N-hydroxycyclopent-2-enecarboxamide]
7.10	Cc1ncc(C2=C[C@](C(=O)NO)(c3cccc(F)c3C)CC2)cc1Cl [Example 26, (S)-3-(5-chloro-6-methylpyridin-3-yl)-1-(3-fluoro-2-methylphenyl)-N-hydroxycyclopent-2-enecarboxamide]
6.92	Cc1c(F)cccc1[C@@]1(C(=O)NO)C=C(c2cncc(Cl)c2)CC1 [Example 11, (S)-3-(5-chloropyridin-3-yl)-1-(3-fluoro-2-methylphenyl)-N-hydroxycyclopent-2-enecarboxamide]
6.70	Cc1c(F)cccc1[C@@]1(C(=O)NO)C=C(c2cncc(C(F)(F)F)c2)CC1 [Example 17, (S)-1-(3-fluoro-2-methylphenyl)-N-hydroxy-3-(5-(trifluoromethyl)pyridin-3-yl)cyclopent-2-enecarboxamide]
5.17	Cc1c(F)cccc1[C@]1(C(=O)NO)C=C(c2cncc(F)c2)CC1 [Example 5, (R)-1-(3-fluoro-2-methylphenyl)-3-(5-fluoropyridin-3-yl)-N-hydroxycyclopent-2-enecarboxamide]

Source: US10106535B2, “Histone deacetylase inhibitors and compositions and methods of use thereof” (CHDI Foundation, Inc., priority 2013, dated 2018)
